Results reported in publication PMC6482079 (European journal of pharmaceutical sciences : official …, 2019).

How the values were obtained:
Experiment in all cases: microbe, parasite or virus in culture
Type in all cases: cell-based, influenza A virus
Conditions in all cases: for Drug sensitivity: sensitivity of the strain to the named drug
[1] = test system: A/Switzerland/9715293/2013 (H3N2)
[2] = test system: A/WSN/1933 (H1N1)
[3] = test system: A/California/07/2009 (H1N1)
[4] = test system: A/North Carolina/39/2009 (H1N1)
[5] = test system: A/Washington/29/2009 (H1N1)
[6] = test system: A/Denmark/528/2009 (H1N1)
[7] = test system: A/Texas/04/2009 (H1N1)

SMILES	Drug sensitivity [1]	Drug sensitivity [2]	Drug sensitivity [3]	Drug sensitivity [4]	Drug sensitivity [5]	Drug sensitivity [6]	Drug sensitivity [7]	further results
NC12CC3CC(CC(C3)C1)C2 [Amantadine, amantadine]	Amantadine Resistant Oseltamivir Sensitive	Amantadine Resistant Oseltamivir Sensitive	Amantadine Resistant Oseltamivir Sensitive	Amantadine Resistant Oseltamivir Resistant	Amantadine Resistant Oseltamivir Resistant	Amantadine Resistant Oseltamivir Resistant	Amantadine Resistant Oseltamivir Resistant	
CCC(CC)O[C@@H]1C=C(C(=O)O)C[C@H](N)[C@H]1NC(C)=O [Oseltamivir carboxylate]	Sensitive	Sensitive	Sensitive	Amantadine Resistant Oseltamivir Resistant	Amantadine Resistant Oseltamivir Resistant	Amantadine Resistant Oseltamivir Resistant	Amantadine Resistant Oseltamivir Resistant	
Cc1cc(OCc2nnc(SC3CCCC3)n2-c2cccnc2)ccc1-c1ccc(S(C)(=O)=O)cc1 [NMS-873]								SI (selectivity index) ([1]; CC50/EC50): 129; EC50 ([1]; Influenza A virus, H3N2, MDCK): 21 ± 2 nM; SI (selectivity index) ([2]; CC50/EC50): 74; EC50 ([2]; Influenza A virus, H1N1|WSN, MDCK): 37 ± 2 nM; SI (selectivity index) ([3]; CC50/EC50): 49; EC50 ([3]; Influenza A virus, H1N1, MDCK): 56 ± 5 nM; SI (selectivity index) ([4]; CC50/EC50): 78; EC50 ([4]; Influenza A virus, H1N1, MDCK): 35 ± 5 nM; SI (selectivity index) ([5]; CC50/EC50): 66; EC50 ([5]; Influenza A virus, H1N1, MDCK): 41 ± 5 nM; SI (selectivity index) ([6]; CC50/EC50): 70; EC50 ([6]; Influenza A virus, H1N1, MDCK): 39 ± 4 nM; SI (selectivity index) ([7]; CC50/EC50): 71; EC50 ([7]; Influenza A virus, H1N1, MDCK): 38 ± 5 nM
